Reference: US11384071B2, “Inhibitors of mechanotransduction to treat pain and modulate touch perception” (Max-Delbrück-Centrum für Molekulare Medizin in der …, priority 2016, dated 2022)

System: cutaneous sensory afferents of the saphenous nerve
Test: Ex vivo skin-nerve preparation after local injection into the paw
Assay type: in vivo, mouse
Procedure: Mice were killed by CO2 inhalation for 2-4 min followed by cervical dislocation. The saphenous nerve and the shaved skin of the hind limb were dissected free and placed in an organ bath. The chamber was perfused with a synthetic interstitial fluid (SIF buffer) the composition of which was (in mM): NaCl, 123; KCl, 3.5; MgSO4, 0.7; NaH2PO4, 1.7; CaCl2), 2.0; sodium gluconate, 9.5; glucose, 5.5; sucrose, 7.5; and HEPES, 10 at a pH of 7.4. The skin was placed with the corium side up in the organ bath. The nerve was placed in an adjacent chamber on a mirror to aid fiber teasing under a stereomicroscope. Fine filaments were teased from the saphenous nerve and placed on the recording electrode.
For the electrical search protocol a micro electrode (1 MΩ) was gently maneuvered to contact the epineurium of the nerve trunk and an electrical stimulation was delivered at a one second interval with square wave pulses of […] duration. […] The electrical nerve stimulation was done at 2 distant sites of the saphenous nerve to trace electrically identified units to their receptive fields. Mechanical sensitivity of single units was tested by mechanical stimulation with a glass rod. For the mechanical search protocol, single units were identified by gentle mechanical stimulation of their receptive field with a glass rod. Mechanically-evoked spikes were visualized and the template saved in an oscilloscope. Then, a sharp tungsten metal electrode was placed in the receptive field and an electrically evoked spike was elicited with suprathreshold current pulses and the electrical latency, the time from the stimulation artifact to spike, was recorded. The distance between the stimulating and recording electrode was designated as the conduction distance. For each isolated fiber the conduction velocity was calculated by dividing conduction distance over electrical latency for the spike.
A computer-controlled nanomotor (Kleindiek, Reutlingen, Germany) was used to apply controlled displacement stimuli of known amplitude and velocity. The probe was a stainless steel metal rod and the diameter of the flat circular contact area was 0.8 mm containing a force transducer (Kleindiek, Reutlingen, Germany). The signal driving the movement of the linear motor and raw electrophysiological data were collected with a Powerlab 4.0 system (ADInstruments) and spikes were discriminated off-line with the spike histogram extension of the software.
We made subcutaneous injections of the OB-1 compound (250-500 pmol per paw) into the hairy skin of the mouse lateral foot innervated by the saphenous nerve and recorded from sensory afferents 3 h later using an ex vivo skin—nerve preparation^5,25.

CCOC(=O)c1c(-c2ccccc2)oc2ccc(Oc3c([N+](=O)[O-])ncn3C)cc12 [OB-1, Ethyl 5-((1-methyl-4-nitro-1H-imidazol-5-yl)oxy)-2-phenylbenzofuran-3-carboxylate]
fibers for which no mechanosensitive receptive field could be found (printed Aβ-fibers) (8/38 fibers vs 5% in controls, not significantly different): 21%
Aβ-fibers lacking a mechanosensitive receptive field (3 h after 250-500 pmol per paw s.c., 19/44 fibers, vehicle less than 7%): over 40%
proportion of C-fibers that lack a mechanosensitive receptive field (3 h after local treatment): no change
firing rates of C-mechanonociceptors (C-Ms) to suprathreshold mechanical stimuli (OB-1 treated skin): not significantly attenuated
proportion of mechanoreceptor types and mechanosensitivity of remaining Aβ-fiber mechanoreceptors (RAMs, SAMs) (OB-1 treated skin vs controls): unchanged
mechanical threshold for activation of C-mechanoheat fibers (OB-1 treated skin, vehicle 106.9±17.4 mN): 196.5±35.6 mN
stimulus response function of C-MH fibers (ascending displacements 32-1024 μm, vs vehicle): significantly less responsive
mechanosensitivity of A-mechanonociceptors (AM) (displacements 32-1024 μm): no changes
proportion of Aβ-fibers insensitive to mechanical stimuli (female mice as in male mice): almost identical proportion
mean force thresholds for C-M fiber (vehicle vs OB-1): not different
